The values below come from patent publication US7799796B2, “Diaminopyrimidines as P2X3 and P2X2/3 modulators” (Roche Palo Alto LLC, priority 2005, dated 2010).

For assay [1], the target named is T1, human P2X2/3 receptor (Homo sapiens, UniProt P56373+Q9UBL9).
T1 construct: expressed in transfected cells; host or cells: CHO-K1
T1 sequence (P56373 1-397): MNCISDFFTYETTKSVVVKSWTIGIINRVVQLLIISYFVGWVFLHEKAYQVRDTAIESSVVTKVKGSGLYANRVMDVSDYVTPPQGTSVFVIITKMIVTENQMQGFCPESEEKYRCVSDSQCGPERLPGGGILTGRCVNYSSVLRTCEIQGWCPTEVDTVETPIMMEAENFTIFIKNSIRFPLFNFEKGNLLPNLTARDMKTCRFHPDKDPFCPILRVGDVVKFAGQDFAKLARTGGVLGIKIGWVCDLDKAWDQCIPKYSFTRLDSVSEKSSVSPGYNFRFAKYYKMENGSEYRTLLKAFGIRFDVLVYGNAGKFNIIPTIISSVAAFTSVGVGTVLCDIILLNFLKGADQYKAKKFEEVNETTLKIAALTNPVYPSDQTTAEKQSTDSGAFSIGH
T1 sequence (Q9UBL9 1-471): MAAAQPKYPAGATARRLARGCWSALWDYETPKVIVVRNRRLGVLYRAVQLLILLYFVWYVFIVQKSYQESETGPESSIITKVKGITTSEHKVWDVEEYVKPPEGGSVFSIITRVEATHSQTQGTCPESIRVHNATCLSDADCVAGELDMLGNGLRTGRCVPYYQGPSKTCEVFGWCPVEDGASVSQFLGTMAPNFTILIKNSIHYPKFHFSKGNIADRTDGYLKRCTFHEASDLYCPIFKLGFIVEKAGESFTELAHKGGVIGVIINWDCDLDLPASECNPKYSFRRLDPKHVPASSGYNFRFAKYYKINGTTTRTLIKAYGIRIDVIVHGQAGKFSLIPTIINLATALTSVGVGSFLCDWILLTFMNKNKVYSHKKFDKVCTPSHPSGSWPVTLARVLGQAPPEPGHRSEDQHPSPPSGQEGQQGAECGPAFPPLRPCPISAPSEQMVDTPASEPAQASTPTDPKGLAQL
In words: P2X2/3 FLIPR (Fluorometric Imaging Plate Reader) assay. Type of assay: cell-based. To be noted: CHO-K1 cells transfected with human P2X2/3; agonist α,β-meATP 5 μM; read-out: pIC50 for the P2X2/3 receptor (converted). As to the method:
(§1) CHO-K1 cells were transfected with cloned rat P2X3 or human P2X2/3 receptor subunits and passaged in flasks. 18-24 hours before the FLIPR experiment, cells were released from their flasks, centrifuged, and resuspended in nutrient medium at 2.5×10^5 cells/ml. The cells were aliquoted into black-walled 96-well plates at a density of 50,000 cells/well and incubated overnight in 5% CO2 at 37° C. On the day of the experiment, cells were washed in FLIPR buffer (calcium- and magnesium-free Hank's balanced salt solution, 10 mM HEPES, 2 mM CaCl2, 2.5 mM probenecid; FB). Each well received 100 μl FB and 100 μl of the fluorescent dye Fluo-3 AM [2 μM final conc.]. […]
(§2) Test compounds (dissolved in DMSO at 10 mM and serially diluted with FB) or vehicle were added to each well (25 μl of a 4× solution) and allowed to equilibrate for 20 minutes at room temperature. The plates were then placed in the FLIPR and a baseline fluorescence measurement (excitation at 488 nm and emission at 510-570 nm) was obtained for 10 seconds before a 100 μl/well agonist or vehicle addition. […] Fluorescence was measured for an additional 2 minutes at 1 second intervals after agonist addition. A final addition of ionomycin (5 μM, final concentration) was made to each well of the FLIPR test plate to establish cell viability and maximum fluorescence of dye-bound cytosolic calcium. […]

Assay [2] addresses T2, rat P2X3 receptor (Rattus norvegicus, UniProt P49654).
T2 construct: expressed in transfected cells; host or cells: CHO-K1
T2 sequence (P49654 1-397): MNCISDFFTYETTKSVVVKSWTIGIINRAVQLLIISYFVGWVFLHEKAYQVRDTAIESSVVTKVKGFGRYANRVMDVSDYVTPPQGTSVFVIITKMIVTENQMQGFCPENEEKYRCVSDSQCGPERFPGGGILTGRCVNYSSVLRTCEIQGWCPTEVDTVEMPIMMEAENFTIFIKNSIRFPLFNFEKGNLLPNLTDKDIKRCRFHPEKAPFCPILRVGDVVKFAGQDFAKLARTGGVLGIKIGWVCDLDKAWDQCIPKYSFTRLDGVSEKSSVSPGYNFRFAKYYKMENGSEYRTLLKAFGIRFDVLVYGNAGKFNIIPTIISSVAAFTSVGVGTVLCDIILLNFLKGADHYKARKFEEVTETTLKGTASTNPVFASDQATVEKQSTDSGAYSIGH
Description: P2X3 FLIPR (Fluorometric Imaging Plate Reader) assay. The assay is classed as cell-based. To be noted: CHO-K1 cells transfected with rat P2X3; agonist α,β-meATP 1 μM; read-out: pIC50 for the P2X3 receptor (converted). As to the method:
as §1, §2

`COc1cc(C(C)C)c(Oc2cnc(NC(=O)C(C)C)nc2N)cc1I` [Compound 10, N-[4-Amino-5-(5-iodo-2-isopropyl-4-methoxy-phenoxy)-pyrimidin-2-yl]-isobutyramide]: the figures for the IC50 in assay [1] and in assay [2] were around 39.8 nM and around 15.8 nM, respectively.
